The results in this text go back to ChEMBL document CHEMBL1201862, “PubChem BioAssay data set” (2004).

Some test systems named below: Malme-3M; SK-OV-3; MDA-MB-435; MDA-N; UACC-257; TK-10; HT-29; SR; MDA-MB-231; SF-295; UACC-62; T47D; SN12C; A498; COLO 205; 786-0; DU-145; SF-268; SW-620; SK-MEL-28.
Holding throughout (test): DTP human tumour cell line panel, 48 h

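These data come from cells grown in 96-well plates and exposed to compound for 48 hours at five concentrations. GI50 is the concentration that inhibits growth by half.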 Activity calls are given as the source filed them. No stated cut-off is given here; in the data, active = GI50 up to about 1.1 µM and inactive = higher.

Usually GI50 stands for the concentration at which growth is held to half of that of the control. For `O=C(O)CCc1ccc2c(c1)CC1(Cc3ccccc3C1)C2`, the GI50 in the assay on Malme-3M, in the assay on SK-OV-3, in the assay on MDA-MB-435, in the assay on MDA-N, with UACC-257 and with TK-10 was > 100 µM (inactive) in each case. Further, the GI50 in the assay with HT-29 was > 100 µM (inactive); in the assay with SR, 37.9 µM (inactive); with MDA-MB-231, > 100 µM (inactive); in the assay with SF-295 it was > 100 µM (inactive); in the assay on UACC-62, > 100 µM (inactive); with T47D, > 100 µM (inactive). In addition, the GI50 with SN12C was > 100 µM (inactive); with A498, > 100 µM (inactive); with COLO 205 it was 78 µM (inactive); in the assay on 786-0, > 100 µM (inactive).
With `COc1ccc2c(c1)CCN=C2c1ccccc1CCCCl`, the GI50 in the assay on SK-OV-3 is 31.5 µM (inactive); in the assay with MDA-MB-435 it was 38.7 µM (inactive); with DU-145 it was 36.5 µM (inactive); with UACC-257 it was 23.7 µM (inactive); in the assay on TK-10 it was 94 µM (inactive); in the assay on HT-29 it was 13.6 µM (inactive). Besides, the GI50 was 19 µM (inactive) in the assay on MDA-MB-231; 22.2 µM (inactive) in the assay on SF-268; 20.5 µM (inactive) in the assay with SF-295; 36.1 µM (inactive) with UACC-62; 10.8 µM (inactive) in the assay on T47D; 6.93 µM (inactive) in the assay with SN12C. In addition, the GI50 is 49.1 µM (inactive) in the assay with A498; 11 µM (inactive) in the assay on COLO 205; > 100 µM (inactive) with SW-620; > 100 µM (inactive) with SK-MEL-28; 38.4 µM (inactive) with 786-0.
As for `COc1ccc(C2=C(Cl)C(=O)N(c3ccc(OC)cc3OC)C(=O)C2(Cl)Cl)cc1`, the GI50 with Malme-3M is 14.6 µM (inactive); in the assay on SK-OV-3, 47.3 µM (inactive); with MDA-MB-435, 16.9 µM (inactive); with DU-145 it was 17.3 µM (inactive); in the assay on UACC-257, 17.8 µM (inactive); in the assay on TK-10 it was 18.9 µM (inactive). Besides, the GI50 in the assay with HT-29 was 18.1 µM (inactive); with SR, 4.09 µM (inactive); with MDA-MB-231, 7.62 µM (inactive); in the assay with SF-268, 18.1 µM (inactive); in the assay with SF-295 it was 24.3 µM (inactive); in the assay with UACC-62, 14.5 µM (inactive). In addition, the GI50 in the assay on T47D is 11.8 µM (inactive); with SN12C, < 0.01 µM (active); in the assay on COLO 205, 17.9 µM (inactive); in the assay on SW-620 it was 14.8 µM (inactive); with SK-MEL-28, 17 µM (inactive); in the assay on 786-0, 15.6 µM (inactive).
In the case of `OC(c1ccccc1)c1c(-c2ccccc2)oc(-c2ccccc2)c1C(O)c1ccccc1` (stereo not given), the GI50 is 12.3 µM (inactive) in the assay with Malme-3M; 14.7 µM (inactive) in the assay on SK-OV-3; 8.04 µM (inactive) in the assay with MDA-MB-435; 9.1 µM (inactive) in the assay with MDA-N; 13.7 µM (inactive) with DU-145; 15.6 µM (inactive) in the assay with TK-10. Further, the GI50 with HT-29 is 11.1 µM (inactive); in the assay with SR it was 9.95 µM (inactive); in the assay on SF-268, 12 µM (inactive); in the assay on SF-295, 15.1 µM (inactive); in the assay on UACC-62 it was 11.2 µM (inactive); in the assay with T47D, 6.28 µM (inactive). For the same molecule, the GI50 with SN12C was 6.22 µM (inactive); with A498, 16.8 µM (inactive); in the assay on COLO 205 it was 5.87 µM (inactive); with SW-620, 14.7 µM (inactive); in the assay on SK-MEL-28, 14.2 µM (inactive); in the assay on 786-0 it was 9.06 µM (inactive).
For the molecule `O=c1oc2ccccc2n1CCN1CCCCC1`, the GI50 with Malme-3M, in the assay on SK-OV-3, with MDA-MB-435, with MDA-N, in the assay with DU-145 and in the assay with UACC-257 was > 100 µM (inactive) throughout. Besides, the GI50 in the assay on TK-10, in the assay with HT-29, in the assay on SR, in the assay with MDA-MB-231, in the assay on SF-268 and in the assay on SF-295 was > 100 µM (inactive) in each case. The GI50 with UACC-62, in the assay with SN12C, with A498, in the assay with COLO 205, in the assay with SW-620 and in the assay with SK-MEL-28 was > 100 µM (inactive) in each case. In the assay on 786-0, the GI50 was > 100 µM (inactive).
As for `C=C(C)[C@@]1(OC(=O)c2cc([N+](=O)[O-])cc([N+](=O)[O-])c2)C[C@@H]2CCCC[C@@H]21`, the GI50 was 34.2 µM (inactive) in the assay with Malme-3M; > 100 µM (inactive) with SK-OV-3; > 100 µM (inactive) in the assay with MDA-N; > 100 µM (inactive) in the assay with DU-145; > 100 µM (inactive) in the assay on UACC-257; > 100 µM (inactive) in the assay with TK-10. Moreover, the GI50 was 47.9 µM (inactive) with HT-29; > 100 µM (inactive) with SR; > 100 µM (inactive) in the assay with MDA-MB-231; > 100 µM (inactive) in the assay with SF-268; 72.9 µM (inactive) with SF-295; > 100 µM (inactive) in the assay on UACC-62. Further, the GI50 was > 100 µM (inactive) in the assay on T47D; > 100 µM (inactive) in the assay on SN12C; 39.2 µM (inactive) with COLO 205; > 100 µM (inactive) in the assay with SW-620; > 100 µM (inactive) in the assay on SK-MEL-28; > 100 µM (inactive) with 786-0.
Consider `ClCCN1CCC2(CC1)SSC1(CCN(CCCl)CC1)S2`, for which the GI50 with Malme-3M is 29.2 µM (inactive); in the assay on SK-OV-3 it was 30.6 µM (inactive); in the assay on MDA-MB-435, 73.6 µM (inactive); with MDA-N, > 100 µM (inactive); in the assay on DU-145 it was 37.2 µM (inactive); with UACC-257, > 100 µM (inactive). In addition, the GI50 in the assay on TK-10 is 35.9 µM (inactive); in the assay with HT-29 it was 48 µM (inactive); in the assay with SR, 7.74 µM (inactive); in the assay with MDA-MB-231, 57.5 µM (inactive); in the assay on SF-268, 10.8 µM (inactive); in the assay on SF-295, 29.4 µM (inactive). In addition, the GI50 was 20.8 µM (inactive) in the assay on UACC-62; 26.2 µM (inactive) in the assay on SN12C; 63.4 µM (inactive) in the assay on A498; 15.8 µM (inactive) in the assay on COLO 205; 76.6 µM (inactive) in the assay on SW-620; > 100 µM (inactive) in the assay with SK-MEL-28. For the same molecule, the GI50 in the assay with 786-0 was 36.7 µM (inactive).
As to `COc1ccc2c(=O)c3c([nH]c2c1)OCC3=O`, the GI50 in the assay on SK-OV-3, with MDA-MB-435, with DU-145, with UACC-257, in the assay on TK-10 and in the assay on HT-29 was > 100 µM (inactive) each time. In addition, the GI50 with SR, with MDA-MB-231, with SF-268, in the assay on SF-295, with UACC-62 and with T47D was > 100 µM (inactive) each time. Further, the GI50 in the assay on A498, in the assay on COLO 205, in the assay on SW-620, in the assay with SK-MEL-28 and in the assay with 786-0 was > 100 µM (inactive) throughout.
Regarding `COC(NC(=O)Nc1ccccc1C)(C(F)(F)F)C(F)(F)F`, the GI50 in the assay on SK-OV-3, in the assay on MDA-MB-435, with MDA-N, with DU-145, in the assay with TK-10 and with HT-29 was > 100 µM (inactive) in each case. For the same molecule, the GI50 was > 100 µM (inactive) in the assay on SR; > 100 µM (inactive) in the assay on SF-268; > 100 µM (inactive) with SF-295; 56.6 µM (inactive) in the assay on UACC-62; 22.4 µM (inactive) in the assay with T47D; > 100 µM (inactive) with SN12C. In addition, the GI50 with A498, with COLO 205, in the assay with SW-620, in the assay on SK-MEL-28 and in the assay with 786-0 was > 100 µM (inactive) throughout.
In the case of `C/C(=N\Nc1nc2cc(F)ccc2s1)c1ccccn1`, the 50% growth inhibitory concentration (GI50) was < 0.01 µM (active) with Malme-3M; 0.0953 µM (active) with SK-OV-3; 0.303 µM (active) with MDA-MB-435; 0.344 µM (active) in the assay with DU-145; < 0.0182 µM (active) in the assay with UACC-257; < 0.01 µM (active) in the assay on HT-29. For the same molecule, the GI50 was 0.0313 µM (active) with SR; 0.0389 µM (active) in the assay on MDA-MB-231; 0.0301 µM (active) with SF-268; 0.275 µM (active) in the assay with SF-295; 0.123 µM (active) with UACC-62; < 0.01 µM (active) in the assay on T47D. Besides, the GI50 was 0.0101 µM (active) in the assay with SN12C; 12.1 µM (inactive) in the assay with A498; < 0.01 µM (active) in the assay with COLO 205; < 0.01 µM (active) in the assay on SW-620; 0.294 µM (active) in the assay on SK-MEL-28; 0.0439 µM (active) with 786-0.
As for `CC1CN=C(N(C(=O)Nc2ccc(F)c(Cl)c2)c2ccccc2)S1` (stereo not given), the GI50 with Malme-3M is 30.3 µM (inactive); in the assay on SK-OV-3 it was 33.6 µM (inactive); in the assay with MDA-N it was 18.9 µM (inactive); in the assay on DU-145, 36.8 µM (inactive); with UACC-257, 24.6 µM (inactive); in the assay on TK-10, 25.9 µM (inactive). Further, the GI50 with HT-29 is 22.9 µM (inactive); in the assay with SR, > 10 µM (inactive); with MDA-MB-231, 17.7 µM (inactive); in the assay on SF-268, 27.5 µM (inactive); with SF-295, 31.3 µM (inactive); with T47D, 16.8 µM (inactive). The GI50 was 17.2 µM (inactive) in the assay with SN12C; 21.1 µM (inactive) in the assay on A498; 19.3 µM (inactive) in the assay on COLO 205; 27.5 µM (inactive) in the assay with SW-620; 15.1 µM (inactive) in the assay on SK-MEL-28; 22.9 µM (inactive) with 786-0.
